Experimental data reported in patent US12606564B2, “Adenosine receptor antagonist compounds” (ILDONG PHARMACEUTICAL CO., LTD., priority 2019, dated 2026).
pKi: −log10 of the molar value.

Assays:
[1] = biological target: Human recombinant adenosine A2A receptor (Homo sapiens, UniProt P29274); assay: Human adenosine A2A receptor binding assay with [3H] CGS-21680 (Example 4.2); conditions: for activity as dual antagonists of both A2A and A1 receptors (in words): summary of Table 5, binding assays of Examples 4.1 and 4.2
Experimental: Test compound is weighed, dissolved in DMSO to make a stock solution of 10 mM, diluted with DMSO to prepare working solutions, then 100-fold diluted to the indicated concentrations. Human recombinant adenosine A2A receptors expressed in HEK-293 cells were used to prepare membranes in incubation buffer (50 mM Tris-HCl, pH 7.4, 10 mM MgCl2, 1 mM EDTA, 2 U/ml Adenosine Deaminase). Test compound or vehicle (2.2 μL) was added in 200 μL of membranes and incubated with 20 μL of 50 nM [^3H] […] Non-specific binding was estimated in the presence of 50 μM NECA (5′-N-ethylcarboxamidoadenosine). The incubation was stopped by vacuum filtration onto 0.3% PEI (polyethylenimine) presoaked GF/B filters using a harvester followed by four washes with ice-cold 50 mM Tris-HCl, pH 7.4, and the radioactivity on GF/B filtermats counted in a scintillation counter (PerkinElmer Topcount™) to determine [^3H] […] Final concentration of vehicle DMSO is 1%.

[2] = biological target: T1, Human recombinant adenosine A1 receptors (Homo sapiens, UniProt P30542); assay: Human adenosine A1 receptor binding assay with [3H] DPCPX (pyrazolo-pyrimidine compounds, Example 4.1); conditions: membranes of CHO-K1 cells, read-out: hA1 Ki
T1 construct: expressed in transfected cells; host or cells: CHO-K1, membrane preparation
T1 sequence (P30542 1-326): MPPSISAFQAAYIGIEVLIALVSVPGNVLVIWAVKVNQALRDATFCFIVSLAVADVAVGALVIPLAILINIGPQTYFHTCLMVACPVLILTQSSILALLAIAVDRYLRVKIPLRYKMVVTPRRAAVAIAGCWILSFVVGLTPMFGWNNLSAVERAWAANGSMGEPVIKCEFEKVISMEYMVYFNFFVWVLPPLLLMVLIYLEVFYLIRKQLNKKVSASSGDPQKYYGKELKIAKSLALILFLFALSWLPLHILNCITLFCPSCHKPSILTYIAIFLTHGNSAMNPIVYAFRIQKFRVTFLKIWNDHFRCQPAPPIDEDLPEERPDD
Experimental: Test compound is weighed, dissolved in DMSO to make a stock solution of 10 mM, diluted with DMSO to prepare working solutions, then 100-fold diluted to the indicated concentrations. Human recombinant adenosine A1 receptors expressed in CHO-K1 cells were used to prepare membranes in incubation buffer (20 mM HEPES (4-(2-hydroxyethyl)-1-piperazineethanesulfonic acid) pH 7.4, 10 mM MgCl2, 100 mM NaCl). Test compound or vehicle (2.2 μL) was added in 200 μL of membranes and incubated with 20 μL of 1 nM [^3H] DPCPX (8-cyclopentyl-1,3-dipropylxanthine) for 90 minutes at 25° C. Non-specific binding was estimated in the presence of 100 μM R(−)-PIA ((R)—N-(1-methyl-2-phenylethyl)adenosine). The incubation was stopped by vacuum filtration onto 0.3% PEI (polyethylenimine) presoaked GF/B filters using a harvester followed by four washes with ice-cold 50 mM Tris-HCl, pH 7.4, and the radioactivity on GF/B filtermats counted in a scintillation counter (PerkinElmer Topcount™) to determine [^3H] DPCPX specifically bound. Final concentration of vehicle DMSO is 1%.
Data is fitted using the non-linear curve fitting routines in Meth-IQ software (ID Business Solutions Ltd., UK).

Chain of Human recombinant adenosine A2A receptor (P29274 whole entry): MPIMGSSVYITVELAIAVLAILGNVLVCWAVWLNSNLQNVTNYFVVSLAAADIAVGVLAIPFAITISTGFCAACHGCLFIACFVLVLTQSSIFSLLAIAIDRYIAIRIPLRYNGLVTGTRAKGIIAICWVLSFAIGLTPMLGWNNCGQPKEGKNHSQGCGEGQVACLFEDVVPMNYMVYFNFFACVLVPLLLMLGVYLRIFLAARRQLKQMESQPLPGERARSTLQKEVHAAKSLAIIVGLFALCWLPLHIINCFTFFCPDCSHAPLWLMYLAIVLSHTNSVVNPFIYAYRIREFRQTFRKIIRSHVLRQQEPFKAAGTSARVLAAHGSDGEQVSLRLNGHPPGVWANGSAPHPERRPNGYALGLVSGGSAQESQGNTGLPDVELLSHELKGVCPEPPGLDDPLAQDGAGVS

Row | SMILES | pKi [1] | activity as dual antagonists of both A2A and A1 receptors (in words) [1] | pKi [2]
1 | N#Cc1cccc(-c2nc(N)nc3c2cnn3Cc2c(F)cc(N)cc2F)c1F [Compound 208, 3-(6-amino-1-(4-amino-2,6-difluorobenzyl)-1H-pyrazolo[3,4-d]pyrimidin-4-yl)-2-fluorobenzonitrile] | > 7.70 | potent activity as dual antagonists | ≥ 7.00
2 | N#Cc1cccc(-c2nc(N)nc3c2cnn3Cc2c(F)cccc2F)c1F [Compound 213, 3-(6-amino-1-(2,6-difluorobenzyl)-1H-pyrazolo[3,4-d]pyrimidin-4-yl)-2-fluorobenzonitrile] |  | potent activity as dual antagonists | 

The remaining lines, values ahead:

Row | pKi [1] | activity as dual antagonists of both A2A and A1 receptors (in words) [1] | pKi [2] | SMILES
3 |  | potent activity as dual antagonists |  | N#Cc1cccc(-c2nc(N)nc3c2cnn3Cc2c(F)cc(N)cc2F)c1 [Compound 207, 3-(6-amino-1-(4-amino-2,6-difluorobenzyl)-1H-pyrazolo[3,4-d]pyrimidin-4-yl)benzonitrile]
4 |  | potent activity as dual antagonists |  | N#Cc1cccc(-c2nc(N)nc3c2cnn3Cc2ccc(N)cc2F)c1F [Compound 203, 3-(6-amino-1-(4-amino-2-fluorobenzyl)-1H-pyrazolo[3,4-d]pyrimidin-4-yl)-2-fluorobenzonitrile]
5 |  | potent activity as dual antagonists |  | N#Cc1cccc(-c2nc(N)nc3c2cnn3Cc2ccc(N)c(C(F)(F)F)c2)c1F [Compound 211, 3-(6-amino-1-(4-amino-3-(trifluoromethyl)benzyl)-1H-pyrazolo[3,4-d]pyrimidin-4-yl)-2-fluorobenzonitrile]
